Experimental data reported in PubChem BioAssay (NCI).
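96-well plates; 48 h exposure; 5 concentrations. Endpoints by linear interpolation between flanking doses. Not reached: highest tested concentration assigned. GI50 marks 50% less growth. The concentration for full growth arrest is given as TGI.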

Experiments:
Assay in all cases: NCI tumour cell line growth inhibition, 48 h
[1] = tested on: K-562 leukemia
[2] = tested on: NCI-H226 lung
[3] = tested on: U251 CNS
[4] = tested on: NCI-H522 lung
[5] = tested on: HOP-92 NSCLC
[6] = tested on: CAKI-1 renal
[7] = tested on: DMS 273 small cell lung
[8] = tested on: NCI-H460 lung
[9] = tested on: MOLT-4 leukemia
[10] = tested on: SNB-75 CNS
[11] = tested on: XF 498 CNS
[12] = tested on: HT29 colon
[13] = tested on: SNB-78 CNS
[14] = tested on: TK-10 renal
[15] = tested on: DMS 114 small cell lung
[16] = tested on: RXF-631 renal
[17] = tested on: LXFL 529 NSCLC
[18] = tested on: MALME-3M melanoma
[19] = tested on: A498 renal
[20] = tested on: HOP-18 NSCLC
[21] = tested on: UACC-62 melanoma
[22] = tested on: SN12C renal
[23] = tested on: M14 melanoma
[24] = tested on: COLO 205 colon
[25] = tested on: SK-MEL-5 melanoma
[26] = tested on: OVCAR-3 ovarian
[27] = tested on: LOX IMVI melanoma
[28] = tested on: IGROV1 ovarian
[29] = tested on: ACHN renal
[30] = tested on: SF-268 CNS
[31] = tested on: SW-620 colon
[32] = tested on: M19-MEL melanoma
[33] = tested on: SK-MEL-2 melanoma
[34] = tested on: SK-MEL-28 melanoma
[35] = tested on: NCI-H23 lung
[36] = tested on: HCT-15 colon
[37] = tested on: DLD-1 colon
[38] = tested on: UO-31 renal
[39] = tested on: EKVX NSCLC
[40] = tested on: SF-295 CNS
[41] = tested on: KM20L2 colon
[42] = tested on: SK-OV-3 ovarian
[43] = tested on: SF-539 CNS
[44] = tested on: SNB-19 CNS
[45] = tested on: RPMI-8226 leukemia
[46] = tested on: CCRF-CEM leukemia
[47] = tested on: HL-60(TB) leukemia
[48] = tested on: OVCAR-8 ovarian
[49] = tested on: HCC-2998 colon
[50] = tested on: SR leukemia
[51] = tested on: HOP-62 NSCLC
[52] = tested on: UACC-257 melanoma
[53] = tested on: KM12 colon
[54] = tested on: 786-0 renal
[55] = tested on: RXF 393 renal
[56] = tested on: OVCAR-5 ovarian
[57] = tested on: HCT-116 colon
[58] = tested on: OVCAR-4 ovarian
[59] = tested on: A549 NSCLC
[60] = tested on: NCI/ADR-RES ovarian
[61] = tested on: P388 leukemia
[62] = tested on: MCF7 breast
[63] = tested on: P388/ADR leukemia
[64] = tested on: SN12K1 renal

## CC1(C)CCc2cc3c(-c4ccccc4)cc(=O)oc3cc2O1
[1]
  TGI: > 100 µM
[2]
  TGI: > 100 µM
[3]
  TGI: > 100 µM
[4]
  TGI: > 100 µM
[5]
  TGI: 72.3 µM
[6]
  TGI: > 100 µM
[7]
  TGI: > 100 µM
[8]
  TGI: > 100 µM
[9]
  TGI: > 100 µM
[10]
  TGI: 71.5 µM
[11]
  TGI: > 100 µM
[12]
  TGI: > 100 µM
[13]
  TGI: > 100 µM
[14]
  TGI: > 100 µM
[15]
  TGI: > 100 µM
[16]
  TGI: > 100 µM
[17]
  TGI: > 100 µM
[18]
  TGI: > 100 µM
[19]
  TGI: > 100 µM
[20]
  TGI: > 100 µM
[21]
  TGI: > 100 µM
[22]
  TGI: > 100 µM
[23]
  TGI: > 100 µM
[24]
  TGI: > 100 µM
[25]
  TGI: > 100 µM
[26]
  TGI: > 100 µM
[27]
  TGI: > 100 µM
[28]
  TGI: > 100 µM
[29]
  TGI: > 100 µM
[30]
  TGI: > 100 µM
[31]
  TGI: > 100 µM
[32]
  TGI: > 100 µM
[33]
  TGI: > 100 µM
[34]
  TGI: > 100 µM
[35]
  TGI: > 100 µM
[36]
  TGI: > 100 µM
[37]
  TGI: > 100 µM
[38]
  TGI: > 100 µM
[39]
  TGI: > 100 µM
[40]
  TGI: > 100 µM
[41]
  TGI: > 100 µM
[42]
  TGI: > 100 µM
[43]
  TGI: > 100 µM
[44]
  TGI: > 100 µM
[45]
  TGI: > 100 µM
[46]
  TGI: > 100 µM
[47]
  TGI: > 100 µM
[48]
  TGI: > 100 µM

## O=C(O)C1CCCCN1C(=O)c1ccccc1 (stereo not given)
[1]
  TGI: > 100 µM
[3]
  TGI: > 100 µM
[5]
  TGI: > 100 µM
[7]
  TGI: > 100 µM
[8]
  TGI: > 100 µM
[9]
  TGI: > 100 µM
[49]
  TGI: > 100 µM
[50]
  TGI: > 100 µM
[51]
  TGI: > 100 µM
[10]
  TGI: > 100 µM
[11]
  TGI: > 100 µM
[12]
  TGI: > 100 µM
[13]
  TGI: > 100 µM
[14]
  TGI: > 100 µM
[52]
  TGI: > 100 µM
[15]
  TGI: > 100 µM
[16]
  TGI: > 100 µM
[17]
  TGI: > 100 µM
[18]
  TGI: > 100 µM
[19]
  TGI: > 100 µM
[20]
  TGI: > 100 µM
[21]
  TGI: > 100 µM
[22]
  TGI: > 100 µM
[53]
  TGI: > 100 µM
[23]
  TGI: > 100 µM
[24]
  TGI: > 100 µM
[54]
  TGI: > 100 µM
[25]
  TGI: > 100 µM
[26]
  TGI: > 100 µM
[27]
  TGI: > 100 µM
[55]
  TGI: > 100 µM
[28]
  TGI: > 100 µM
[29]
  TGI: > 100 µM
[30]
  TGI: > 100 µM
[31]
  TGI: > 100 µM
[32]
  TGI: > 100 µM
[56]
  TGI: > 100 µM
[34]
  TGI: > 100 µM
[35]
  TGI: > 100 µM
[57]
  TGI: > 100 µM
[36]
  TGI: > 100 µM
[37]
  TGI: > 100 µM
[38]
  TGI: > 100 µM
[39]
  TGI: > 100 µM
[40]
  TGI: > 100 µM
[41]
  TGI: > 100 µM
[42]
  TGI: > 100 µM
[43]
  TGI: > 100 µM
[58]
  TGI: > 100 µM
[44]
  TGI: > 100 µM
[45]
  TGI: > 100 µM
[46]
  TGI: > 100 µM
[47]
  TGI: > 100 µM
[48]
  TGI: > 100 µM
[59]
  TGI: > 100 µM

## [C-]#[O+].[Cl][Sn]([Cl])[Cl].[Cl][Sn]([Cl])[Cl].[Pt].c1ccncc1
[1]
  TGI: > 100 µM
[2]
  TGI: > 100 µM
[3]
  TGI: > 100 µM
[4]
  TGI: > 65.3 µM
[5]
  TGI: > 100 µM
[6]
  TGI: > 100 µM
[7]
  TGI: > 100 µM
[8]
  TGI: > 100 µM
[60]
  GI50: > 100 µM
  TGI: > 100 µM
[9]
  TGI: > 100 µM
[61]
  GI50: 33.4 µM
  TGI: > 100 µM
[49]
  TGI: > 100 µM
[51]
  TGI: > 100 µM
[10]
  TGI: > 100 µM
[12]
  TGI: > 100 µM
[62]
  GI50: > 100 µM
  TGI: > 100 µM
[52]
  TGI: > 100 µM
[18]
  TGI: > 100 µM
[19]
  TGI: > 100 µM
[21]
  TGI: > 100 µM
[22]
  TGI: > 100 µM
[53]
  TGI: > 100 µM
[24]
  TGI: > 100 µM
[63]
  GI50: 35.4 µM
  TGI: > 100 µM
[25]
  TGI: > 100 µM
[26]
  TGI: > 100 µM
[27]
  TGI: > 31.6 µM
[55]
  TGI: > 100 µM
[28]
  TGI: > 100 µM
[30]
  TGI: > 100 µM
[31]
  TGI: > 100 µM
[33]
  TGI: > 100 µM
[56]
  TGI: > 100 µM
[34]
  TGI: > 100 µM
[35]
  TGI: > 100 µM
[57]
  TGI: > 100 µM
[36]
  TGI: > 100 µM
[37]
  TGI: > 100 µM
[38]
  TGI: > 100 µM
[39]
  TGI: > 100 µM
[40]
  TGI: > 100 µM
[41]
  TGI: > 100 µM
[42]
  TGI: > 100 µM
[43]
  TGI: > 100 µM
[58]
  TGI: > 100 µM
[44]
  TGI: > 100 µM
[64]
  GI50: > 75.6 µM
  TGI: > 100 µM
[45]
  TGI: > 100 µM
[46]
  TGI: > 100 µM
[47]
  TGI: > 74 µM
[48]
  TGI: > 100 µM
[59]
  TGI: > 100 µM
